Test results published in article PMC7155171, “Probing the Open Global Health Chemical Diversity Library for Multistage-Active Starting Points for Next-Generation Antimalarials” (ACS Infectious Diseases, 2020).
Where two headings read alike, the source gives them in different places.

Key:
P. falciparum Dd2 = assay: SYBR green I asexual blood stage proliferation assay (96 h); format: cell-based, Plasmodium falciparum; conditions: Plasmodium falciparum, DD2, 11-pt dose response, 96hr
[1] = system: P. falciparum Dd2 (PfLuc) line expressing firefly luciferase, asexual blood stage; assay: microbe, parasite or virus in culture; format: cell-based, Plasmodium falciparum; conditions: Plasmodium falciparum
[2] = Sybr Green I, read-out: CDD P. falciparum Sybr Green I ABS 11-pt Reconfirmation Dose Response (96hr): IC50
[3] = Sybr Green I, read-out: CDD P. falciparum Sybr Green I ABS 11-pt Reconfirmation Dose Response (96hr): Maximum inhibition (%)
[4] = DD2, read-out: CDD P. falciparum Luciferase ABS 11-pt Reconfirmation Dose Response (48hr): IC50 (μM), 11-pt dose response, 48hr
[5] = DD2, 8-pt dose response, 96hr, read-out: CDD P. falciparum Luciferase ABS 8-pt Reconfirmation Dose Response (96hr): IC50
[6] = DD2, 8-pt dose response, 96hr, read-out: CDD P. falciparum Luciferase ABS 8-pt Reconfirmation Dose Response (96hr): Maximum inhibition (%)
[7] = DD2, 11-pt dose response, 48hr, read-out: CDD P. falciparum Luciferase ABS 11-pt Reconfirmation Dose Response (48hr): Maximum inhibition (%)
[8] = DD2, 11-pt dose response, 96hr, read-out: CDD P. falciparum Luciferase ABS 11-pt Reconfirmation Dose Response (96hr): IC50
[9] = DD2, 11-pt dose response, 96hr, read-out: CDD P. falciparum Luciferase ABS 11-pt Reconfirmation Dose Response (96hr): Maximum inhibition (%)
[10] = 96 h incubation, Dd2 luciferase, read-out: 96 hour Pfluc IC50
[11] = read-out: P. falciparum Sybr Green I ABS 11-pt Reconfirmation Dose Response (96hr): IC50
[12] = read-out: P. falciparum Sybr Green I ABS 11-pt Reconfirmation Dose Response (96hr): Maximum inhibition (%)
[13] = DD2, read-out: P. falciparum Luciferase ABS 11-pt Reconfirmation Dose Response (48hr): IC50, 11-pt dose response, 48hr
[14] = DD2, 8-pt dose response, 96hr, read-out: P. falciparum Luciferase ABS 8-pt Reconfirmation Dose Response (96hr): IC50
[15] = DD2, 8-pt dose response, 96hr, read-out: P. falciparum Luciferase ABS 8-pt Reconfirmation Dose Response (96hr): Maximum inhibition (%)
[16] = DD2, 11-pt dose response, 96hr, read-out: P. falciparum Luciferase ABS 11-pt Reconfirmation Dose Response (96hr): IC50

| SMILES | IC50 (P. falciparum Dd2; [2]) [nM] | Emax (P. falciparum Dd2; [3]) [%] | IC50 [1, 4] [µM] | IC50 [1, 5] [µM] | Emax [1, 6] [%] | Emax [1, 7] [%] | IC50 [1, 8] [µM] | Emax [1, 9] [%] | IC50 [1, 10] [µM] | IC50 (P. falciparum Dd2; [11]) [nM] | Emax (P. falciparum Dd2; [12]) [%] | IC50 [1, 13] [µM] | IC50 [1, 14] [µM] | Emax [1, 15] [%] | IC50 [1, 16] [µM] | Emax ([1]; DD2, 11-pt dose response, 96hr, read-out: P. falciparum Luciferase ABS 11-pt Reconfirmation Dose Response (96hr): Maximum inhibition (%)) [%] | Emax ([1]; DD2, 11-pt dose response, 48hr, read-out: P. falciparum Luciferase ABS 11-pt Reconfirmation Dose Response (48hr): Maximum inhibition (%)) [%] |
| --- | --- | --- | --- | --- | --- | --- | --- | --- | --- | --- | --- | --- | --- | --- | --- | --- | --- |
| CN1CCC(O)(CNCc2ccc(F)c(C(F)(F)F)c2)CC1 [DDD01065665] | 3170 | 86.1 | > 12.5 | 0.71 | 90.5 | 33.7 | 4.45 | 88.8 |  |  |  |  |  |  |  |  |  |
| CC1(C)CN(C(CNC2=NCCN2)c2ccc(Cl)cc2)CCO1 (stereo not drawn) [DDD01066238] | 3750 | 50.5 | 0.786 | 0.55 | 80.3 | 64.5 | 3.52 | 81.2 |  |  |  |  |  |  |  |  |  |
| O=C(CC1CCCC1)NCCNCc1cccc2c1OCCO2 [DDD01067280] | > 4160 | 67 | > 12.5 | 1.09 | 84.7 | 64.2 | > 1.39 | 89.2 |  |  |  |  |  |  |  |  |  |
| c1cc2c(cc1C1(CNC3=NCCN3)CCCC1)OCCO2 [DDD01067440] | 1240 | 65.6 | 8.77 | 0.57 | 86.8 | 68.7 | 1.63 | 92 |  |  |  |  |  |  |  |  |  |
| Clc1ccc(C2(CNC3=NCCN3)CC2)cc1 [DDD01067441] | 760 | 101 | 1.96 | 0.55 | 95.1 | 96.7 | 0.613 | 99.9 |  |  |  |  |  |  |  |  |  |
| Clc1ccc(C2(CNC3=NCCN3)CCCC2)cc1 [DDD01067443] | 2260 | 98.5 | 5.56 | 0.25 | 94.9 | 90 | 0.995 | 98.3 | 1 |  |  |  |  |  |  |  |  |
| Clc1ccc(C2(CNC3=NCCN3)CCCCC2)cc1 [DDD01067446] | 1290 | 99.8 | 2.9 | 0.22 | 96.3 | 97.1 | 0.731 | 99.6 |  |  |  |  |  |  |  |  |  |
| Fc1ccc(C2(CNC3=NCCN3)CCCC2)cc1 [DDD01067448] |  |  |  |  |  |  |  |  |  | 3300 | 94.1 | 6.73 | 1.43 | 88.3 | 1.18 | 95.9 |  |
| CCN1CCCN(S(=O)(=O)c2cc3ccccc3o2)CC1 [DDD01067562] | 1460 | 73.1 | 8.55 | 0.58 | 87.2 | 65 | 1.34 | 85.4 |  |  |  |  |  |  |  |  |  |
| O=C(Nc1nccs1)C1CCCN1Cc1ccccn1 (stereo not drawn) [DDD01068868] | 888 | 96.4 | 0.884 | 0.3 |  | 91.2 | 0.303 | 99.3 |  |  |  |  |  |  |  |  |  |
| Cc1cccc(OC(C)C(=O)NCC2(N(C)C)CCCC2)c1 (stereo not drawn) [DDD01069466] | 2140 | 64.8 | > 12.5 | 0.95 |  | 46.7 | 2.5 | 85.7 |  |  |  |  |  |  |  |  |  |
| CN1CCN(CC(NCc2ccc(F)c(F)c2)c2ccccc2)CC1 (stereo not drawn) [DDD01069631] | 4410 | 85.4 | 5.37 | 0.58 | 89.5 | 78.3 | 0.913 | 94.6 | 0.91 |  |  |  |  |  |  |  |  |
| CC(C)(C)C(=O)NCCNCc1ccc(Cl)c2cccnc12 [DDD01070293] | 2250 | 64.4 | > 12.5 | 1.05 | 82 | 37.6 | 1.51 | 83.4 |  |  |  |  |  |  |  |  |  |
| CCN1CCN(c2ccc(F)cc2C(C)NCc2ccccn2)CC1 (stereo not drawn) [DDD01070491] | > 4160 | 73.8 | > 12.5 | 0.83 | 82.8 | 53 | 1.9 |  |  |  |  |  |  |  |  |  |  |
| CCN1CCN(c2ccc(F)cc2C(C)NCc2cscn2)CC1 (stereo not drawn) [DDD01070576] |  |  |  |  |  |  |  |  |  | 7180 | 78.2 | > 12.5 | 1.25 | 87.1 | 2.44 |  | 47.9 |
